Results reported in BindingDB's records for doi:10.1074/jbc.271.42.26315 (Bayer, 1996).
pKi: −log10 of the molar value. Where “and” joins values, the source holds several entries; their conditions need not be identical. Equal values may be shown once. Peptide text beside a SMILES is read from it.

How the values were obtained:
[1] = target: T1, Neuropeptide Y receptor type 5 (Homo sapiens, UniProt Q15761)
T1 sequence (Q15761 whole entry): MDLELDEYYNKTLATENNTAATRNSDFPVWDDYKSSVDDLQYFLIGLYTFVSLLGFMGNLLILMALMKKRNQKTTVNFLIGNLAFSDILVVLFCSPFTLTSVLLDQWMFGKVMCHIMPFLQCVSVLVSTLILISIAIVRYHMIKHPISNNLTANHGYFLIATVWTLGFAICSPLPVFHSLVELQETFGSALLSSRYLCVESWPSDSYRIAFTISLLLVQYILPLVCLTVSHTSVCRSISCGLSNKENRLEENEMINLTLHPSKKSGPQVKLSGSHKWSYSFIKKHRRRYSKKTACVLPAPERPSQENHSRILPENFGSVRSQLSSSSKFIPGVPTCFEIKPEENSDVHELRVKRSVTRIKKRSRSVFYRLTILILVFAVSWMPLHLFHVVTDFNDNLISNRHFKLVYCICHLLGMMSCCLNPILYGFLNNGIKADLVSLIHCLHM

[2] = target: T2, Neuropeptide Y receptor type 5 (Rattus norvegicus, UniProt Q63634)
T2 sequence (Q63634 whole entry): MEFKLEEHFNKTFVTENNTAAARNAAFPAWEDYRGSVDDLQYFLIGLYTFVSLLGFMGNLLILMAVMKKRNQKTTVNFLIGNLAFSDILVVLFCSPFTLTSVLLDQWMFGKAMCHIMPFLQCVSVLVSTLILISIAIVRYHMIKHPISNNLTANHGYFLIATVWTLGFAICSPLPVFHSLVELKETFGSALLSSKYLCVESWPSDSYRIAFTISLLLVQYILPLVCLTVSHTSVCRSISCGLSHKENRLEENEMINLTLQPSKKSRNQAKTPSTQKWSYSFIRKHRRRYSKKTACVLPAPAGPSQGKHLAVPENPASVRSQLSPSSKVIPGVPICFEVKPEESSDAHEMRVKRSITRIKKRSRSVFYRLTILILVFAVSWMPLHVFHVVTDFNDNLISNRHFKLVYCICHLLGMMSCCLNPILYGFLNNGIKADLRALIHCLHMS

Row | pKi [1] | pKi [2] | SMILES
1 | 6.00 | 6.00 | CC[C@H](C)[C@H](NC(=O)[C@H](Cc1ccc(O)cc1)NC(=O)[C@H](Cc1cnc[nH]1)NC(=O)[C@H](CCCN=C(N)N)NC(=O)[C@H](CC(C)C)NC(=O)[C@H](C)NC(=O)[C@@H](N)CO)C(=O)N[C@@H](CC(N)=O)C(=O)N[C@@H](CC(C)C)C(=O)N[C@H](C(=O)N[C@H](C(=O)N[C@@H](CCCN=C(N)N)C(=O)N[C@@H](CCC(N)=O)C(=O)N[C@@H](CCCN=C(N)N)C(=O)N[C@@H](Cc1ccc(O)cc1)C(N)=O)[C@@H](C)O)[C@@H](C)CC [NPY22-36, rat, human]
2 | 6.36 | 7.21 and 6.53 | CC[C@H](C)[C@H](NC(=O)[C@H](Cc1ccc(O)cc1)NC(=O)[C@H](CCCNC(=N)N)NC(=O)[C@H](CCCNC(=N)N)NC(=O)[C@H](CC(C)C)NC(=O)[C@H](CCC(N)=O)NC(=O)[C@@H](NC(=O)[C@H](CCC(=O)O)NC(=O)[C@H](Cc1ccc(O)cc1)NC(=O)[C@H](CCC(N)=O)NC(=O)[C@H](C)NC(=O)[C@H](CCCNC(=N)N)NC(=O)[C@H](CCC(N)=O)NC(=O)[C@H](CCC(=O)O)NC(=O)[C@H](Cc1c[nH]cn1)NC(=O)[C@@H](NC(=O)[C@H](C)NC(=O)[C@H](Cc1ccc(O)cc1)NC(=O)[C@H](CC(=O)O)NC(=O)CNC(=O)[C@@H]1CCCN1C(=O)[C@H](Cc1ccc(O)cc1)NC(=O)[C@H](CCSC)NC(=O)[C@@H]1CCCN1C(=O)[C@H](CCC(=O)O)NC(=O)[C@H](CC(C)C)NC(=O)[C@@H]1CCCN1C(=O)[C@H](C)N)[C@@H](C)O)[C@@H](C)O)C(=O)N[C@@H](CC(N)=O)C(=O)N[C@H](C(=O)N[C@@H](CC(C)C)C(=O)N[C@H](C(=O)N[C@@H](CCCNC(=N)N)C(=O)N1CCC[C@H]1C(=O)N[C@@H](CCCNC(=N)N)C(=O)N[C@@H](Cc1ccc(O)cc1)C(N)=O)[C@@H](C)O)[C@@H](C)O [NSC_41735]
3 |  | 6.00 | N=C(N)NCCCC(NC(=O)C(c1ccccc1)c1ccccc1)C(=O)NCc1ccc(O)cc1 (stereo unspecified) [NSC_5311023]

Row | SMILES | pKi [1] | pKi [2]
4 | CC(C)C[C@H](NC(=O)[C@H](CO)NC(=O)[C@H](C)NC(=O)[C@H](Cc1ccc(O)cc1)NC(=O)[C@H](Cc1ccc(O)cc1)NC(=O)[C@H](CCCNC(=N)N)NC(=O)[C@H](CO)NC(=O)[C@H](CC(C)C)NC(=O)[C@H](CCC(=O)O)NC(=O)[C@H](CCC(=O)O)NC(=O)[C@@H]1CCCN1C(=O)[C@@H](N)CO)C(=O)N[C@@H](CCCNC(=N)N)C(=O)N[C@@H](Cc1c[nH]cn1)C(=O)N[C@@H](Cc1ccc(O)cc1)C(=O)N[C@@H](CC(C)C)C(=O)N[C@@H](CC(N)=O)C(=O)N[C@@H](CC(C)C)C(=O)N[C@H](C(=O)N[C@H](C(=O)N[C@@H](CCCNC(=N)N)C(=O)N[C@@H](CCC(N)=O)C(=O)N[C@@H](CCCNC(=N)N)C(=O)N[C@@H](Cc1ccc(O)cc1)C(N)=O)[C@@H](C)O)C(C)C [PYY 3-36, rat] (H-SPEELSRYYASLRHYLNLVTRQRY-NH2) | 8.00 | 
